From patent US20120029187A1, “HALOALKYLSULFONANILIDE DERIVATIVE” (Nissan Chemical Industries, Ltd., priority 2009, published 2012)

Experiments:
Assay type in all cases: in vivo
barnyardgrass [1] = experiment: Test Example 1: herbicidal effects in preemergence treatment under submerged conditions; details: dose 2.52 g/a
From the text: (§1) Test on the Herbicidal Effects in Preemergence Treatment on Weeds Under Submerged Conditions
(§2) Alluvial soil was put in 1/30000-are styrol cups and admixed with water so that it was submerged at a depth of 4 cm. In each cup, seeds of barnyardgrass, bulrush and ducksalad were sown together, and rice seedlings at the 2.5-leaf stage were transplanted. On the same day as the seeding, emulsifiable concentrates containing compounds of the present invention formulated in accordance with Formulation Example 2 were applied to the water surfaces at predetermined doses after diluted with water. The cups were placed in a greenhouse at 25 to 30° C. to grow the plants. Three weeks after the application, the herbicidal effects against various plants were determined on the following evaluation scale.
(§3) 5 mortality of 90% or above (nearly complete death)
(§4) 4 mortality of at least 70% and less than 90%
(§5) 3 mortality of at least 40% and less than 70%
(§6) 2 mortality of at least 20% and less than 40%
(§7) 1 mortality of at least 5% and less than 20%
(§8) 0 mortality of less than 5% (almost ineffective)
(§9) A: barnyardgrass, B: bulrush, C: ducksalad, D: large crabgrass, E: giant foxtail, F: wild oat, G: water foxtail, H: Italian ryegrass, I: velvetleaf, J: common ragweed, K: redroot pigweed, L: common lambsquater, M: posumbu knotweed, N: common chickweed, O: beadstraw, a: transplanted rice, b: corn, c: soybean, d: direct-seeded rice, e: wheat, f: sugar beet.
(§10) The doses (g/a) represents the amounts in g per 1 are (a) applied after adjustment of concentration adjustment.

bulrush [2] = experiment: as above; details: dose 2.52 g/a
From the text: as §1, §2, §3, §4, §5, §6, §7, §8, §9, §10

ducksalad [3] = experiment: as above; details: dose 2.52 g/a
From the text: as §1, §2, §3, §4, §5, §6, §7, §8, §9, §10

transplanted rice = experiment: Test Example 1: preemergence treatment under submerged conditions, effect on crop; details: dose 2.52 g/a
From the text: as §1, §2, §3, §4, §5, §6, §7, §8, §9, §10

barnyardgrass [4] = experiment: Test Example 2: herbicidal effects during the vegetation period under submerged conditions; details: treatment during the vegetation period under submerged conditions; dose 2.52 g/a
Procedure: (§11) Test on the Herbicidal Effects on Weeds During the Vegetation Period Under Submerged Conditions
(§12) Alluvial soil was put in 1/30000-are styrol cups and admixed with water so that it was submerged at a depth of 4 cm. In each cup, seeds of barnyardgrass, bulrush and ducksalad were sown together, and the cups were placed in a greenhouse at 25 to 30° C. to grow the plants. When the barnyardgrass, bulrush and ducksalad reached the 1- or 2-leaf stage, emulsifiable concentrates containing compounds of the present invention formulated in accordance with Formulation Example 2 were applied to the water surfaces at predetermined doses after diluted with water. Three weeks after the application, the herbicidal effects against various plants were determined on the same evaluation scale as in Test Example 1.
as §9, §10

bulrush [5] = experiment: as above; details: treatment during the vegetation period under submerged conditions; dose 2.52 g/a
Procedure: as §11, §12, §9, §10

ducksalad [6] = experiment: as above; details: treatment during the vegetation period under submerged conditions; dose 2.52 g/a
Procedure: as §11, §12, §9, §10

Italian ryegrass [7] = experiment: Test Example 3: herbicidal effects in soil treatment; details: dose 3.2 g/a
From the text: (§13) Test on the Herbicidal Effects in Soil Treatment
(§14) Sterilized diluvial soil was put in plastic boxes with a length of 21 cm, a width of 13 cm and a depth of 7 cm, and seeds of barnyardgrass, large crabgrass, giant foxtail, wild oat, blackgrass, velvetleaf, common ragweed, redroot pigweed, common lambsquater, posumbu knotweed, common chickweed corn, soybean, rice, wheat and sugar beet were sown in spots and covered with an about 1.5 cm-thick soil layer. Emulsifiable concentrates containing compounds of the present invention formulated in accordance with Formulation Example 2 were uniformly applied to the soil surfaces at predetermined doses through a small sprayer after dilute with water. Three weeks after the application, the herbicidal effects against various plants were determined on the same evaluation scale as in Test Example 1.
as §9, §10

barnyardgrass [8] = experiment: as above; details: dose 3.2 g/a
From the text: as §13, §14, §9, §10

common chickweed [9] = experiment: as above; details: dose 3.2 g/a
From the text: as §13, §14, §9, §10

common lambsquater [10] = experiment: as above; details: dose 3.2 g/a
From the text: as §13, §14, §9, §10

common ragweed [11] = experiment: as above; details: dose 3.2 g/a
From the text: as §13, §14, §9, §10

giant foxtail [12] = experiment: as above; details: dose 3.2 g/a
From the text: as §13, §14, §9, §10

large crabgrass [13] = experiment: as above; details: dose 3.2 g/a
From the text: as §13, §14, §9, §10

posumbu knotweed [14] = experiment: as above; details: dose 3.2 g/a
From the text: as §13, §14, §9, §10

redroot pigweed [15] = experiment: as above; details: dose 3.2 g/a
From the text: as §13, §14, §9, §10

water foxtail [16] = experiment: as above; details: dose 3.2 g/a
From the text: as §13, §14, §9, §10

Italian ryegrass [17] = experiment: Test Example 4: herbicidal effect in foliage treatment; details: dose 3.2 g/a, three weeks after the application
From the text: (§15) Test on the Herbicidal Effect in Foliage Treatment
as §14, with “chickweed,” for “chickweed”, “The boxes were placed in a greenhouse at 25 to 30° C. to grow the plants. After 14 days, emulsifiable” for “Emulsifiable”, “foliage” for “soil surfaces”, “diluted” for “dilute”
as §9, §10

barnyardgrass [18] = experiment: as above; details: dose 3.2 g/a, three weeks after the application
From the text: as §15
as §14, with “chickweed,” for “chickweed”, “The boxes were placed in a greenhouse at 25 to 30° C. to grow the plants. After 14 days, emulsifiable” for “Emulsifiable”, “foliage” for “soil surfaces”, “diluted” for “dilute”
as §9, §10

common chickweed [19] = experiment: as above; details: dose 3.2 g/a, three weeks after the application
From the text: as §15
as §14, with “chickweed,” for “chickweed”, “The boxes were placed in a greenhouse at 25 to 30° C. to grow the plants. After 14 days, emulsifiable” for “Emulsifiable”, “foliage” for “soil surfaces”, “diluted” for “dilute”
as §9, §10

common lambsquater [20] = experiment: as above; details: dose 3.2 g/a, three weeks after the application
From the text: as §15
as §14, with “chickweed,” for “chickweed”, “The boxes were placed in a greenhouse at 25 to 30° C. to grow the plants. After 14 days, emulsifiable” for “Emulsifiable”, “foliage” for “soil surfaces”, “diluted” for “dilute”
as §9, §10

common ragweed [21] = experiment: as above; details: dose 3.2 g/a, three weeks after the application
From the text: as §15
as §14, with “chickweed,” for “chickweed”, “The boxes were placed in a greenhouse at 25 to 30° C. to grow the plants. After 14 days, emulsifiable” for “Emulsifiable”, “foliage” for “soil surfaces”, “diluted” for “dilute”
as §9, §10

giant foxtail [22] = experiment: as above; details: dose 3.2 g/a, three weeks after the application
From the text: as §15
as §14, with “chickweed,” for “chickweed”, “The boxes were placed in a greenhouse at 25 to 30° C. to grow the plants. After 14 days, emulsifiable” for “Emulsifiable”, “foliage” for “soil surfaces”, “diluted” for “dilute”
as §9, §10

large crabgrass [23] = experiment: as above; details: dose 3.2 g/a, three weeks after the application
From the text: as §15
as §14, with “chickweed,” for “chickweed”, “The boxes were placed in a greenhouse at 25 to 30° C. to grow the plants. After 14 days, emulsifiable” for “Emulsifiable”, “foliage” for “soil surfaces”, “diluted” for “dilute”
as §9, §10

posumbu knotweed [24] = experiment: as above; details: dose 3.2 g/a, three weeks after the application
From the text: as §15
as §14, with “chickweed,” for “chickweed”, “The boxes were placed in a greenhouse at 25 to 30° C. to grow the plants. After 14 days, emulsifiable” for “Emulsifiable”, “foliage” for “soil surfaces”, “diluted” for “dilute”
as §9, §10

redroot pigweed [25] = experiment: as above; details: dose 3.2 g/a, three weeks after the application
From the text: as §15
as §14, with “chickweed,” for “chickweed”, “The boxes were placed in a greenhouse at 25 to 30° C. to grow the plants. After 14 days, emulsifiable” for “Emulsifiable”, “foliage” for “soil surfaces”, “diluted” for “dilute”
as §9, §10

velvetleaf = experiment: as above; details: dose 3.2 g/a, three weeks after the application
From the text: as §15
as §14, with “chickweed,” for “chickweed”, “The boxes were placed in a greenhouse at 25 to 30° C. to grow the plants. After 14 days, emulsifiable” for “Emulsifiable”, “foliage” for “soil surfaces”, “diluted” for “dilute”
as §9, §10

water foxtail [26] = experiment: as above; details: dose 3.2 g/a, three weeks after the application
From the text: as §15
as §14, with “chickweed,” for “chickweed”, “The boxes were placed in a greenhouse at 25 to 30° C. to grow the plants. After 14 days, emulsifiable” for “Emulsifiable”, “foliage” for “soil surfaces”, “diluted” for “dilute”
as §9, §10

## CCOC(=O)N(c1ccccc1CN1COC(C)C(C)C1=O)S(=O)(=O)C(F)(F)F (stereo not shown) [II-71]
Barnyardgrass [1]
  A: barnyardgrass, herbicidal effect (evaluation scale 0-5): 5 (mortality of 90% or above (nearly complete death))
Bulrush [2]
  B: bulrush, herbicidal effect (evaluation scale 0-5): 5 (mortality of 90% or above (nearly complete death))
Ducksalad [3]
  C: ducksalad, herbicidal effect (evaluation scale 0-5): 5 (mortality of 90% or above (nearly complete death))
Transplanted rice
  a: transplanted rice, effect on crop (evaluation scale 0-5): 0 (mortality of less than 5% (almost ineffective))
Barnyardgrass [4]
  A: barnyardgrass, herbicidal effect (evaluation scale 0-5): 5 (mortality of 90% or above (nearly complete death))
Bulrush [5]
  B: bulrush, herbicidal effect (evaluation scale 0-5): 5 (mortality of 90% or above (nearly complete death))
Ducksalad [6]
  C: ducksalad, herbicidal effect (evaluation scale 0-5): 5 (mortality of 90% or above (nearly complete death))
Italian ryegrass [7]
  H: Italian ryegrass, herbicidal effect (evaluation scale 0-5): 2 (mortality of at least 20% and less than 40%)
Barnyardgrass [8]
  A: barnyardgrass, herbicidal effect (evaluation scale 0-5): 5 (mortality of 90% or above (nearly complete death))
Common chickweed [9]
  N: common chickweed, herbicidal effect (evaluation scale 0-5): 3 (mortality of at least 40% and less than 70%)
Common lambsquater [10]
  L: common lambsquater, herbicidal effect (evaluation scale 0-5): 0 (mortality of less than 5% (almost ineffective))
Common ragweed [11]
  J: common ragweed, herbicidal effect (evaluation scale 0-5): 5 (mortality of 90% or above (nearly complete death))
Giant foxtail [12]
  E: giant foxtail, herbicidal effect (evaluation scale 0-5): 4 (mortality of at least 70% and less than 90%)
Large crabgrass [13]
  D: large crabgrass, herbicidal effect (evaluation scale 0-5): 5 (mortality of 90% or above (nearly complete death))
Posumbu knotweed [14]
  M: posumbu knotweed, herbicidal effect (evaluation scale 0-5): 3 (mortality of at least 40% and less than 70%)
Redroot pigweed [15]
  K: redroot pigweed, herbicidal effect (evaluation scale 0-5): 5 (mortality of 90% or above (nearly complete death))
Water foxtail [16]
  G: water foxtail, herbicidal effect (evaluation scale 0-5): 5 (mortality of 90% or above (nearly complete death))
Italian ryegrass [17]
  H: Italian ryegrass, herbicidal effect: 1 (mortality of at least 5% and less than 20%)
Barnyardgrass [18]
  A: barnyardgrass, herbicidal effect: 5 (mortality of 90% or above (nearly complete death))
Common chickweed [19]
  N: common chickweed, herbicidal effect: 4 (mortality of at least 70% and less than 90%)
Common lambsquater [20]
  L: common lambsquater, herbicidal effect: 0 (mortality of less than 5% (almost ineffective))
Common ragweed [21]
  J: common ragweed, herbicidal effect: 3 (mortality of at least 40% and less than 70%)
Giant foxtail [22]
  E: giant foxtail, herbicidal effect: 4 (mortality of at least 70% and less than 90%)
Large crabgrass [23]
  D: large crabgrass, herbicidal effect: 4 (mortality of at least 70% and less than 90%)
Posumbu knotweed [24]
  M: posumbu knotweed, herbicidal effect: 0 (mortality of less than 5% (almost ineffective))
Redroot pigweed [25]
  K: redroot pigweed, herbicidal effect: 0 (mortality of less than 5% (almost ineffective))
velvetleaf
  I: velvetleaf, herbicidal effect: 5 (mortality of 90% or above (nearly complete death))
Water foxtail [26]
  G: water foxtail, herbicidal effect: 5 (mortality of 90% or above (nearly complete death))
